Ten compounds from patent US11046698B2, “TYK2 inhibitors and uses thereof” (Nimbus Lakshmi, Inc., priority 2017, dated 2021) can be followed below.

Test [1] concerns IL-12 induced STAT4 phophorylation mediated by Tyk2/JAK2 (heterodimeric complex). The test can be described thus: IL-12 Induced pSTAT4 in Human PBMC. Format: cell-based. As to conditions: 1.7 ng/mL IL-12. The text has this:
The IL-12 Induced pSTAT4 assay evaluates the inhibition of IL-12 induced STAT4 phophorylation mediated by Tyk2/JAK2 (heterodimeric complex).

The test system of test [2] is GM-CSF induced STAT5 phosphorylation mediated by the JAK2/JAK2 homodimeric complex. The test can be described thus: GM-CSF Induced pSTAT5 in Human PBMC. As to conditions: 20 min, read-out: PBMC_GMCSF_pSTAT5 IC50 (μM), human PBMC, GM-CSF 5 ng/mL for 20 minutes, pSTAT5 by MSD.
The target in a further test is JAK2 kinase domain (JH1) (Homo sapiens (Human), UniProt O60674). The test can be described thus: JAK2 Radioactive Kinase Assay. Format: biochemical. Particulars: ATP 10 μM. As to the method: (§1) The Tyk2 and JAK2 radioactive kinase assay measures the percent inhibiton at the Tyk2 kinase domain (JH1) and the percent inhibiton at the JAK2 kinase domain (JH1). Results of the assay are expressed as percent inhibition at 10 μM.
Sequence of JAK2 kinase domain (JH1) (O60674 849-1124): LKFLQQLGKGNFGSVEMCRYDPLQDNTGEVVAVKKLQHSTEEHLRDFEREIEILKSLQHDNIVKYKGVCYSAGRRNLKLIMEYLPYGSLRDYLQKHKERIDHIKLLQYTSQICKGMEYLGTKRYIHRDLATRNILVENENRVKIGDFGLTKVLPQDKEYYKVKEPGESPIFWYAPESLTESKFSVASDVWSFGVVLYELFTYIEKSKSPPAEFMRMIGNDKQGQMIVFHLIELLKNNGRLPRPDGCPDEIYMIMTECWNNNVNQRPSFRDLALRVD

In the next test the target is Tyk2 kinase domain (JH1) (Homo sapiens (Human), UniProt P29597). Briefly: Tyk2 Radioactive Kinase Assay. Format: biochemical. Particulars: ATP 10 μM. The method, then: as §1
Sequence of Tyk2 kinase domain (JH1) (P29597 897-1176): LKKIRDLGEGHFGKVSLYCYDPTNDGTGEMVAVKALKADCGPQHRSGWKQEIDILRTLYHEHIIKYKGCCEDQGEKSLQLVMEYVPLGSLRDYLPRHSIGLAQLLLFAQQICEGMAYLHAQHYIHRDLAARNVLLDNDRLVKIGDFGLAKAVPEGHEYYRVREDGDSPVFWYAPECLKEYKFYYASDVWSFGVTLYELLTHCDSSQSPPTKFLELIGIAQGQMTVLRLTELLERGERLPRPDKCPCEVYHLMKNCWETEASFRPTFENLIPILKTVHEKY
The target in test [3] is human TYK2 (JH2domain-pseudokinase) (Homo sapiens (Human), UniProt P29597). Briefly: TYK2 JH2 Domain Binding Assay (KINOMEscan, DiscoveRx). As to the method: Binding constants for compounds of the present invention against the JH2 domain were determined by the following protocol for a KINOMEscan® assay (DiscoveRx). A fusion protein of a partial length construct of human TYK2 (JH2domain-pseudokinase) (amino acids G556 to D888 based on reference sequence NP_003322.3) and the DNA binding domain of NFkB was expressed in transiently transfected HEK293 cells. From these HEK 293 cells, extracts were prepared in M-PER extraction buffer (Pierce) in the presence of Protease Inhibitor Cocktail Complete (Roche) and Phosphatase Inhibitor Cocktail Set II (Merck) per manufacturers' instructions. The TYK2(JH2domain-pseudokinase) fusion protein was labeled with a chimeric double-stranded DNA tag containing the NFkB binding site (5′-[…]-3′) fused to an amplicon for qPCR readout, which was added directly to the expression extract (the final concentration of DNA-tag in the binding reaction is 0.1 nM). […]
Sequence of human TYK2 (JH2domain-pseudokinase) (P29597 556-888): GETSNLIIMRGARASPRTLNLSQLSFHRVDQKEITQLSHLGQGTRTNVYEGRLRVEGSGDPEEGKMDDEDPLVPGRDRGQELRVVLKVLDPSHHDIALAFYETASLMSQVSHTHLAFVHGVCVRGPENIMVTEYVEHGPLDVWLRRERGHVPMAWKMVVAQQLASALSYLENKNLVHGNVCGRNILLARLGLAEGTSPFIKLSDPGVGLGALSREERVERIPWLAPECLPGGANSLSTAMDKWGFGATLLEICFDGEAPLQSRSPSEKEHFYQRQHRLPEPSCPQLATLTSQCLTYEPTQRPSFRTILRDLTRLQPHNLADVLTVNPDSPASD
Extracts were used directly in binding assays without any enzyme purification steps at a ≥10,000-fold overall stock dilution (final DNA-tagged enzyme concentration <0.1 nM). […] Kds were determined using an 11-point 3-fold compound dilution series with three DMSO control points. […]
Kds were determined using an 11-point 3-fold compound dilution series with three DMSO control points. […] The Kds were determined using a compound top concentration of 30,000 nM. […]

For `CNc1cc(Nc2cc(Cl)cn([C@@H]3CCCOC3)c2=O)nc2c(C(=O)N[C@@H]3C[C@@H]3F)cnn12` [I-773], the IC50 was < 100 nM in test [1] and > 12.5 µM in test [2].
On to `CNc1cc(-c2cn([C@H]3CCN(CCF)C3)c3ncccc23)nc2c(C(=O)N[C@@H]3C[C@@H]3F)cnn12` [I-1362], for which the IC50 in test [1] was < 100 nM.
The term inhibition denotes the share of the control response that was lost under treatment. Turning to `CNc1cc(Nc2cccnc2OC)nc2c(C(=O)NC3CC4(COC4)C3)cnn12` [I-408], the inhibition at 10 µM at JAK2 kinase domain (JH1) (10 μM compound) and at Tyk2 kinase domain (JH1) (10 μM compound) was < 50% each time.
As usually defined, the Kd is the concentration at which binding is half-saturated. A higher Kd goes with a looser complex. With `CNc1cc(Nc2cccn([C@H]3CC[C@@H]3OC)c2=O)nc2c(C(=O)NC3CC3)cnn12` [I-936], in test [3], the Kd lay in the range of 0.2 to 1 nM.
As for `CNc1cc(Nc2cccn([C@H]3CC[C@](C)(OC)CC3)c2=O)nc2c(C(=O)N[C@H]3C[C@H]3F)cnn12` [I-362], the IC50 is < 100 nM in test [1] and > 50 µM in test [2].
As to `CNc1cc(Nc2cccn3ccnc23)cc2c(C(=O)N[C@H]3CC[C@@H]3OC)cnn12` [I-1052], the inhibition at 10 µM on JAK2 kinase domain (JH1) (compound at 10 μM) and at Tyk2 kinase domain (JH1) (compound at 10 μM) was < 50% each time. For the same compound, in test [2], the IC50 was > 50 µM. Further, the Kd in test [3] is < 0.2 nM.
For the compound `CNc1cc(-c2cn(C(C)C)c3ncc(F)cc23)nc2c(C(=O)N[C@H]3CC[C@H]3O)cnn12` [I-1387], the IC50 in test [1] was < 100 nM.
`CNc1cc(Nc2cccn([C@H]3CC[C@@H](N4CCOCC4)CC3)c2=O)nc2c(C(=O)N[C@H]3C[C@H]3F)cnn12` [I-304]: the “JAK2 JH1% Inhibition @ 10 μM” value on JAK2 kinase domain (JH1) (10 μM compound) was “A (had a percent inhibition at 10 μM lower than 50)”. Further, on Tyk2 kinase domain (JH1) (10 μM compound), the “Tyk2 JH1% Inhibition @ 10 μM” value is “A (had a percent inhibition at 10 μM lower than 50)”.
Consider `CNc1cc(Nc2cccn([C@H]3CC[C@H](OC)CC3)c2=O)nc2c(C(=O)N[C@H]3COC[C@H]3O)cnn12` [I-746], for which the “JAK2 JH1% Inhibition @ 10 μM” value at JAK2 kinase domain (JH1) (10 μM compound) is on record as “A (had a percent inhibition at 10 μM lower than 50)”. Moreover, the “Tyk2 JH1% Inhibition @ 10 μM” value on Tyk2 kinase domain (JH1) (10 μM compound) was “A (had a percent inhibition at 10 μM lower than 50)”.
Regarding `CNc1cc(Nc2cccc([C@@H]3CCCOC3)n2)nc2c(C(=O)N[C@H]3CC[C@@H]3O)cnn12` [I-664], the inhibition at 10 µM at JAK2 kinase domain (JH1) (10 μM compound) and at Tyk2 kinase domain (JH1) (10 μM compound) was < 50% each time.
